Source: US20220348584A1, “PERK INHIBITING INDOLINYL COMPOUNDS” (HiberCell, Inc., priority 2019, published 2022)
Like-named read-outs stand apart in the source and are kept apart here.

Experiments:
[1] = biological target: T1, EIF2AK3 (PERK) catalytic domain (amino acids 536-1116) (Homo sapiens, UniProt Q9NZJ5); assay: PERK In Vitro Activity Assay (Isolated), TR-FRET kinase assay; format: biochemical; details: isolated PERK enzyme, 1.5 μM ATP
T1 construct: EIF2AK3 (PERK) catalytic domain (amino acids 536-1116); purchased Invitrogen, Carlsbad, Calif
T1 sequence (Q9NZJ5 536-1116): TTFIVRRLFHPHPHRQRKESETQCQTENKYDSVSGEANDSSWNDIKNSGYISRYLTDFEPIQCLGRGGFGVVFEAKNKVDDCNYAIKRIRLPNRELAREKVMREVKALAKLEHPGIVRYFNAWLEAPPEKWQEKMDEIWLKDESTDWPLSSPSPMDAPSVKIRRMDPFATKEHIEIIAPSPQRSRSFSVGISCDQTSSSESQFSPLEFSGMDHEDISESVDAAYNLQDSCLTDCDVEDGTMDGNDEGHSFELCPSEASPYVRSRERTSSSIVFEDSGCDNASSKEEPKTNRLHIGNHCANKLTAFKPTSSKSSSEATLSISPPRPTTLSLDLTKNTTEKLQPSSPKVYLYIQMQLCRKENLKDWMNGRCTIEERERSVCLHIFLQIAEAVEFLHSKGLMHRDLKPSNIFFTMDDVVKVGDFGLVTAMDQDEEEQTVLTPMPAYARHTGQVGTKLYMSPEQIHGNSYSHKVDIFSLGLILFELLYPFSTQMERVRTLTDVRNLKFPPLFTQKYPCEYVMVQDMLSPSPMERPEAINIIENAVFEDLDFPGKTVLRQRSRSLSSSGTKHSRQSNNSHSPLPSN
Experimental: Perform TR-FRET kinase assays in the absence or presence of inhibitors in a reaction buffer consisting of 50 mM HEPES, pH 7.5, 10 mM MgCb, 1.0 mM EGTA, and 0.01% Brij-35, and 100-200 nM GFP-eIF2a substrate. […] Add test compound, initiate the reaction by addition of enzyme, and incubate at room temperature for 45 minutes. Stop the reaction by addition of EDTA to a final concentration of 10 mM, add Terbium-labelled phospho-eIF2a antibody at a final concentration of 2 nM, and incubate for 90 minutes. Monitor the resulting fluorescence in an EnVison® Multilabel reader (PerkinElmer, Waltham, Mass.).

[2] = system: HEK293-EGFP-eIF2a cells; assay: PERK Cellular Assay (TR-FRET, GFP-eIF2α, tunicamycin-induced ER stress); format: cell-based, human; details: Homo sapiens, 2 h
Experimental: Stable cell lines were created in HEK293 cells using lentiviral particles harboring an expression vector for GFP-eIF2α. Cells were selected using puromycin and enriched using fluorescence activated cell sorting against GFP. HEK293-EGFP-eIF2a cells were plated at 5000 cells/well in 384-well assay plates and incubated overnight at 37° C., 5% CO2. Inhibitor compounds were added to the wells by Echo acoustic dispensing and incubated for 30 minutes at 37° C., 5% CO2 prior to induction of ER stress by addition of tunicamycin to […] for 2 hours. Cells were lysed and TR-FRET was measured in an EnVision plate reader (PerkinElmer). FRET ratio data was normalized to signal from lysates treated with DMSO vehicle control and plotted as percent inhibition against 10-point; 3-fold dilution series of inhibitors. IC50 values were calculated using 4-parameter logistical fitting in XLFit.

[3] = HEK293-EGFP-eIF2a cells, tunicamycin 2 hours, TR-FRET, read-out: Cellular eIF2α IC50

SMILES: Cc1cccc(CC(=O)N2CCc3c2ccc(-c2nc(C)n4c(C)c(C)nc(N)c24)c3F)n1 [Example 27, 1-(5-(8-amino-3,5,6-trimethylimidazo[1,5-a]pyrazin-1-yl)-4-fluoroindolin-1-yl)-2-(6-methylpyridin-2-yl)ethanone]
- IC50 ([1]; read-out: Biochemical IC50): 0.051 to 0.1 µM
- IC50 [2, 3]: 0.251 to 0.5 µM

SMILES: Cn1cc(-c2ccc3c(c2F)CCN3C(=O)Nc2ccccc2)c2c(N)ncnc21 [Example 28, 5-(4-amino-7-methyl-7H-pyrrolo[2,3-d]pyrimidin-5-yl)-4-fluoro-N-phenylindoline-1-carboxamide]
- IC50 ([1]; read-out: Biochemical IC50): 0.101 to 0.25 µM
- IC50 [2, 3]: 2 to 3 µM

SMILES: Cc1cccc(CC(=O)N2CCc3c2ccc(-c2cnc(N)c(C(=O)NC(C)C)c2)c3F)n1 [Example 29, 2-amino-5-(4-fluoro-1-(2-(6-methylpyridin-2-yl)acetyl)indolin-5-yl)-N-isopropylnicotinamide]
- IC50 ([1]; read-out: Biochemical IC50): 0.051 to 0.1 µM
- IC50 [2, 3]: 0.501 to 1 µM

SMILES: Cn1cc(-c2ccc3c(c2F)CCN3C(=O)C(F)(F)c2ccccc2)c2c(N)ncnc21 [Example 30, 1-(5-(4-amino-7-methyl-7H-pyrrolo[2,3-d]pyrimidin-5-yl)-4-fluoroindolin-1-yl)-2,2-difluoro-2-phenylethanone]
- IC50 ([1]; read-out: Biochemical IC50): 0.026 to 0.05 µM
- IC50 [2, 3]: 0.101 to 0.25 µM

SMILES: Cc1cc(C)n(CC(=O)N2CCc3c2ccc(-c2cn(C)c4ncnc(N)c24)c3F)n1 [Example 31, 1-(5-(4-amino-7-methyl-7H-pyrrolo[2,3-d]pyrimidin-5-yl)-4-fluoroindolin-1-yl)-2-(3,5-dimethyl-1H-pyrazol-1-yl)ethanone]
- IC50 ([1]; Biochemical IC50 (μM)): 0.001 to 0.025 µM
- IC50 ([2]; read-out: Cellular eIF2α IC50 (μM)): 0.001 to 0.025 µM

SMILES: Cc1cc(C)n(CC(=O)N2CCc3c2ccc(-c2cn(C)c4nc(C)nc(N)c24)c3F)n1 [Example 32, 1-(5-(4-amino-2,7-dimethyl-7H-pyrrolo[2,3-d]pyrimidin-5-yl)-4-fluoroindolin-1-yl)-2-(3,5-dimethyl-1H-pyrazol-1-yl)ethanone]
- IC50 ([1]; read-out: Biochemical IC50): 0.001 to 0.025 µM
- IC50 [2, 3]: 0.051 to 0.1 µM

SMILES: Cc1nc(-c2ccc3c(c2)CCN3C(=O)Cc2cc(F)cc(C(F)(F)F)c2)c2c(N)ncc(Cl)n12 [Example 33, 1-(5-(8-amino-5-chloro-3-methylimidazo[1,5-a]pyrazin-1-yl)indolin-1-yl)-2-(3-fluoro-5-(trifluoromethyl)phenyl)ethanone]
- IC50 ([1]; read-out: Biochemical IC50): 0.001 to 0.025 µM
- IC50 [2, 3]: 0.001 to 0.025 µM
